Data: US20240059703A1 (AMGEN INC., priority 2021, published 2024)

Key:
[1] = target: KRAS G12C (Homo sapiens (Human), UniProt P01116, C118A/G12C); assay: 2 h coupled exchange assay; format: biochemical; details: Avg 2 h Coupled exchange IC50, 2 h compound pre-incubation
Experimental: The term “2 h coupled exchange assay” or “20 h coupled exchange assay” as used herein refers to the assay described in the Section entitled “BIOLOGICAL EVALUATION.”

[2] = test system: A549 (human lung carcinoma) cells; assay: Cell Viability Assay (CellTiter-Glo), A549; format: cell-based; details: Homo sapiens, A549, 72 h
Experimental: MIA PaCa-2 (human pancreatic carcinoma; ATCC CRL-1420) or A549 (human lung carcinoma; ATCC CCL-185) cells were cultured in RPMI 1640 medium containing 10% fetal bovine serum and 1× penicillin/streptomycin/L-glutamine. Cells were seeded in 384-well plates at a density of 1.67E+04 cells/mL and incubated at 37° C., 5% CO2, overnight. Serially-diluted compound or DMSO was added to the cells, and plates were incubated at 37° C., 5% CO2 for 72 h. Cell viability was measured using a CellTiter-Glo® Luminescent Cell Viability Assay kit (Promega) according to the manufacturer's protocol. The luminescence signal of treated samples was normalized to DMSO control, and data were analyzed using a 4-parameter logistic model to calculate IC50 values.

[3] = test system: MIA PaCa-2 (human pancreatic carcinoma) cells; assay: Cell Viability Assay (CellTiter-Glo), MIA PaCa-2; format: cell-based; details: Homo sapiens, MIA PaCa-2, 72 h
Experimental: Serially-diluted compound or DMSO was added to the cells, and plates were incubated at 37° C., 5% CO2 for 72 h. Cell viability was measured using a CellTiter-Glo® Luminescent Cell Viability Assay kit (Promega) according to the manufacturer's protocol. The luminescence signal of treated samples was normalized to DMSO control, and data were analyzed using a 4-parameter logistic model to calculate IC50 values.

[4] = SOS-mediated nucleotide exchange

KRAS G12C, sequence (P01116 other isoform, or with tags, fused parts or gaps G12C/C118A): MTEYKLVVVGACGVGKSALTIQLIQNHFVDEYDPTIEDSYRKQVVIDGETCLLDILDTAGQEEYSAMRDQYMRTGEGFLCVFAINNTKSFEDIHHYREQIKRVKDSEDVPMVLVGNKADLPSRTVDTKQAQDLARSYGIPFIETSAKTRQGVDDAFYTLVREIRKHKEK

| SMILES | IC50 [1, 4] | IC50 [2] | IC50 [3] | IC50 [1] |
| --- | --- | --- | --- | --- |
| C=CC(=O)N1CC2(CCN(c3nc4c(c(-c5ccccc5Cl)c3C#N)CC[C@H](c3ccnn3C)C4)C2)C1 [Example 13-21, (7S)-4-(2-chlorophenyl)-7-(1-methyl-1H-pyrazol-5-yl)-2-(2-(2-propenoyl)-2,6-diazaspiro[3.4]octan-6-yl)-5,6,7,8-tetrahydro-3-quinolinecarbonitrile] | 62 nM | > 5000 nM | 615 nM | – |
| C=CC(=O)N1CC2(CCN(c3nc4c(c(-c5cccc(C)c5C)n3)CC[C@H](c3scnc3C)C4)C2)C1 (single isomer, unassigned) [Example 22-2] | – | > 25000 nM | 5270 nM | 701 nM |
| C=CC(=O)N1CC2(CCN(c3nc4c(c(-c5ccccc5C)c3C#N)CCC(c3scnc3C)=C4)C2)C1 (single isomer, unassigned) [Example 23-23, (M)-4-(2-methylphenyl)-7-(4-methyl-1,3-thiazol-5-yl)-2-(2-(2-propenoyl)-2,6-diazaspiro[3.4]octan-6-yl)-5,6-dihydro-3-quinolinecarbonitrile] | – | 3370 nM | 1080 nM | 92 nM |
| C=CC(=O)N1CC2(CCN(c3nc4c(c(-c5cccc(F)c5O)c3C)CC[C@@H](c3c(C)cnn3C)C4)C2)C1 [Example 14-94, 1-(6-((7R)-7-(1,4-dimethyl-1H-pyrazol-5-yl)-4-(3-fluoro-2-hydroxyphenyl)-3-methyl-5,6,7,8-tetrahydro-2-quinolinyl)-2,6-diazaspiro[3.4]octan-2-yl)-2-propen-1-one] | – | 14400 nM | 118 nM | 228 nM |
| C=CC(=O)N1CC2(CCN(c3nc4c(c(-c5cc(O)cc6ccccc56)c3Cl)COC(C)(C)C4)C2)C1 (single isomer, unassigned) [Example 2-78, (P)-1-(6-(3-chloro-4-(3-hydroxy-1-naphthalenyl)-7,7-dimethyl-7,8-dihydro-5H-pyrano[4,3-b]pyridin-2-yl)-2,6-diazaspiro[3,4]octan-2-yl)-2-propen-1-one] | – | > 5000 nM | 14 nM | – |
| C=CC(=O)N1CC2(CCN(c3nc4c(c(-c5cc(O)cc6ccccc56)c3Cl)COC(C)(C)C4)C2)C1 [Example 2-76, 1-(6-(3-chloro-4-(3-hydroxy-1-naphthalenyl)-7,7-dimethyl-7,8-dihydro-5H-pyrano[4,3-b]pyridin-2-yl)-2,6-diazaspiro[3.4]octan-2-yl)-2-propen-1-one] | – | > 5000 nM | 26 nM | – |
| C=CC(=O)N1CC2(CCN(c3nc4c(c(-c5cc(O)cc6ccccc56)c3F)C[C@H]3C[C@@H]4C3(C)C)C2)C1 [Example 14-1, 1-(6-((1R,9R)-5-fluoro-6-(3-hydroxy-1-naphthalenyl)-10,10-dimethyl-3-azatricyclo[7.1.1.0^2,7]undeca-2,4,6-trien-4-yl)-2,6-diazaspiro[3.4]octan-2-yl)-2-propen-1-one] | – | > 5000 nM | 39 nM | – |
| C=CC(=O)N1CC2(CCN(c3nc4c(c(-c5cc(O)cc6ccccc56)c3F)C[C@H]3C[C@@H]4C3(C)C)C2)C1 (single isomer, unassigned) [Example 14-77] | – | > 5000 nM | – | – |
| Cc1ccc2[nH]ncc2c1-c1c(C#N)c(N2CCC3(CN(C(=O)/C=C/CN(C)C)C3)C2)cc2c1COCC2 [Example 2-94, 6-(2-((2E)-4-(dimethylamino)-2-butenoyl)-2,6-diazaspiro[3.4]octan-6-yl)-8-(5-methyl-1H-indazol-4-yl)-3,4-dihydro-1H-2-benzopyran-7-carbonitrile] | 610 nM | – | – | – |
| C=CC(=O)N1CC2(CCN(c3nc4c(c(-c5cc(O)cc6nccnc56)c3C#N)C[C@H]3C[C@@H]4C3(C)C)C2)C1 (single isomer, unassigned) [Example 12-39] | 3900 nM | – | – | – |
| C=CC(=O)N1CC2(CCN(c3nc4c(c(-c5c(C)c(Cl)cc6cn[nH]c56)c3F)COC(C)(C)C4)C2)C1 [Example 14-85] | – | – | – | 56 nM |
| C=CC(=O)N1CC2(CCN(c3nc4c(c(-c5c(C)c(Cl)cc6[nH]ncc56)c3Cl)COC(C)(C)C4)C2)C1 [Example 2-92, 1-(6-(3-chloro-4-(6-chloro-5-methyl-1H-indazol-4-yl)-7,7-dimethyl-7,8-dihydro-5H-pyrano[4,3-b]pyridin-2-yl)-2,6-diazaspiro[3.4]octan-2-yl)-2-propen-1-one] | 21 nM | – | – | – |
| C=CC(=O)N1CC2(CCN(c3nc4c(c(-c5cc(O)cc(F)c5F)c3C)CCC(C)(C)C4)C2)C1 [Example 2-26, 1-(6-(4-(2,3-difluoro-5-hydroxyphenyl)-3,7,7-trimethyl-5,6,7,8-tetrahydro-2-quinolinyl)-2,6-diazaspiro[3.4]octan-2-yl)-2-propen-1-one] | 234 nM | – | – | – |
| C=CC(=O)N1CC2(CCN(c3nc4c(c(-c5c(C)cccc5O)c3C#N)C[C@H]3C[C@@H]4C3)C2)C1 [Example 13-38, (1S,9S)-6-(2-hydroxy-6-methylphenyl)-4-(2-(2-propenoyl)-2,6-diazaspiro[3.4]octan-6-yl)-3-azatricyclo[7.1.1.0^2,7]undeca-2,4,6-triene-5-carbonitrile] | 1420 nM | – | – | – |
| C=CC(=O)N1CC2(CCN(c3nc4c(c(-c5c(C)c(Cl)cc6cnn(C)c56)c3F)COC(C)(C)C4)C2)C1 (single isomer, unassigned) [Example 14-79, (P)-1-(6-(4-(5-chloro-1,6-dimethyl-1H-indazol-7-yl)-3-fluoro-7,7-dimethyl-7,8-dihydro-5H-pyrano[4,3-b]pyridin-2-yl)-2,6-diazaspiro[3.4]octan-2-yl)-2-propen-1-one] | – | – | – | 9600 nM |
| C=CC(=O)N1CC2(CCN(c3nc4c(c(-c5cc(O)cc6cccnc56)c3C#N)C[C@H]3C[C@@H]4C3(C)C)C2)C1 [Example 2-43, (1R,9R)-6-(6-hydroxy-8-quinolinyl)-10,10-dimethyl-4-(2-(2-propenoyl)-2,6-diazaspiro[3,4]octan-6-yl)-3-azatricyclo[7.1.1.0^2,7]undeca-2,4,6-triene-5-carbonitrile] | 193 nM | – | – | – |
| C=CC(=O)N1CC2(CCN(c3nc4c(c(-c5c(C)ccc6cnn(C)c56)c3C#N)C[C@H]3C[C@@H]4C3)C2)C1 (single isomer, unassigned) [Example 13-117] | 15800 nM | – | – | – |
| C=CC(=O)N1CC2(CCN(c3nc4c(c(-c5c(C)ccc6[nH]ncc56)c3C#N)C[C@H]3C[C@@H]4C3(C)C)C2)C1 (single isomer, unassigned) [Example 13-114] | 1380 nM | – | – | – |
| C=CC(=O)N1CC2(CCN(c3nc4cc(-c5ccnn5C)ccc4c(-c4c(O)cccc4F)c3C)C2)C1 [Example 16-10, 1-(6-(4-(2-fluoro-6-hydroxyphenyl)-3-methyl-7-(1-methyl-1H-pyrazol-5-yl)-2-quinolinyl)-2,6-diazaspiro[3,4]octan-2-yl)-2-propen-1-one] | – | – | – | 260 nM |
| C=CC(=O)N1CC2(CCN(c3nc4c(c(-c5c(C)c(Cl)cc6cnn(C)c56)c3C)CCN(C(C)C)C4)C2)C1 (single isomer, unassigned) [Example 12-23, (P)-1-(6-(4-(5-chloro-1,6-dimethyl-1H-indazol-7-yl)-3-methyl-7-(2-propanyl)-5,6,7,8-tetrahydro-1,7-naphthyridin-2-yl)-2,6-diazaspiro[3.4]octan-2-yl)-2-propen-1-one] | 18700 nM | – | – | – |
| C=CC(=O)N1CC2(CCN(c3nc4c(c(-c5c(C)ccc6cnn(C)c56)c3C#N)CCC4(C)C)C2)C1 (single isomer, unassigned) [Example 13-103, (M)-2-(2-acryloyl-2,6-diazaspiro[3.4]octan-6-yl)-4-(1,6-dimethyl-1H-indazol-7-yl)-7,7-dimethyl-6,7-dihydro-5H-cyclopenta[b]pyridine-3-carbonitrile] | 283 nM | – | – | – |
